In publication PMC11473290, “1,3,4-oxadiazoles as inhibitors of the atypical member of the BET family bromodomain factor 3 from Trypanosoma cruzi (TcBDF3)” (Frontiers in Microbiology, 2024):
Like-named read-outs stand apart in the source and are kept apart here.

Experiments:
TcBDF3 [1] = target: T1, TcBDF3 (Trypanosoma cruzi, UniProt Q4DXV1); assay: Fluorescence polarization (FP) assay, displacement of BSP-AF488 probe; assay type: binding; conditions: 0.5 μM BSP-AF488, 100-μM TcBDF3
Experimental: FP measurement was performed on a Cary Eclipse spectrophotometer equipped with a polarizer at an excitation wavelength of 488 nm and an emission wavelength of […] in a 3-ml fluorescence cuvette. The essay was set at a final volume of 2 mL, 0.5 μM of BSP-AF488, 100-μM TcBDF3, phosphate pH = 8, glycerol 1%, and DMSO 0.5%. The FP values were plotted against the log of the compound concentrations in a non-linear regression model in GraphPad Prism 9.0 as previously described ([Zhang et al., 2002]). In this assay, A1B4, A1B4c, and A5B4c were used. Briefly, free and bound probes (BSP-AF488 in the presence of TcBDF3) were included in each replica. Since the intensity of the probe remains similar for all samples, the fraction of the probe bound to TcBDF3 is correlated to the mP value. Thus, the percentage of inhibition can be derived from the equation % inhibition =100[1 − (mP − mPf)/(mPb − mPf)], in which mPf is the free probe control and mPb is the bound probe control. Based on the percentage of inhibition, the inhibitory concentration (IC50), or the inhibitor concentration at which 50% of the bound probe is displaced, is obtained by fitting the inhibition data.

[2] = system: TcBD2 (recombinant bromodomain of TcBDF2); assay: Tryptophan intrinsic fluorescence quenching assay; assay type: binding, Trypanosoma cruzi; conditions: 10-μM protein; 5, 10 and 20 μM compound; cut-off 0.9 normalized units
Experimental: (§1) 96-well black microplates with 10-μM recombinant proteins (TcBDF3, TcBDF3m, TcBD3, and TcBD2) and three concentrations of each compound were used (5, 10, and 20 μM). In this assay, A1B4 and iBET-151 (positive control) were used. All determinations were made from the top with an excitation wavelength of 275 and a 340/30 nm emission filter, 50 reads per well, and a PMT-sensitivity setting of 180 in a Synergy HT multidetection microplate reader equipped with time-resolved capable optics. Each condition was tested in triplicates, and normalized maximum fluorescence intensityvs. Concentration was plotted using GraphPad Prism 9.0. The relative fluorescence intensity obtained to the condition without the inhibitor was normalized.

[3] = system: TcBD3 (bromodomain of TcBDF3, amino acids 1-151); assay: Tryptophan intrinsic fluorescence quenching assay; assay type: binding, Trypanosoma cruzi; conditions: 10-μM protein; 5, 10 and 20 μM compound; cut-off 0.9 normalized units
Experimental: as §1

[4] = system: TcBDF3m (Y123A and L130A); assay: Tryptophan intrinsic fluorescence quenching assay; assay type: binding, Trypanosoma cruzi; conditions: 10-μM protein; 5, 10 and 20 μM compound; cut-off 0.9 normalized units
Experimental: as §1

TcBDF3 [5] = target: T1, TcBDF3; conditions: full-length TcBDF3; previously published; ref García et al., 2018; read-out: Kd ± SD DSF; cited from earlier work
[6] = system: T. cruzi Dm28c epimastigotes; design: method as in García et al., 2018; conditions: already published, ref García et al., 2018, cited from earlier work
[7] = system: T. cruzi Dm28c trypomastigotes; design: method as in García et al., 2018; conditions: already published, ref García et al., 2018, cited from earlier work
[8] = system: T. cruzi Dm28c amastigotes; design: method as in García et al., 2018; conditions: already published, ref García et al., 2018, cited from earlier work
Vero cells = system: Vero cells; design: method as in García et al., 2018; conditions: MTT; already published; ref García et al., 2018; cited from earlier work
TcBDF3 [9] = target: T1, TcBDF3; assay: Thermal shift assay (DSF), dissociation constants; assay type: binding; conditions: full-length TcBDF3; SD from three independent experiments
Experimental: The proteins were buffered in 10-mM HEPES, pH 7.5, and 500 mM NaCl and assayed in a 48-well plate at a final concentration of 2 μM in a volume of 20 μL. Compounds were added at a final concentration between 1 and 200 μM to calculate dissociation constants. In this assay, A1B4, A1B4c, A5B4 and A5B4c were used. SYPRO Orange (Invitrogen) was added as a fluorescence probe at a dilution of 1:1000. The excitation and emission filters for the SYPRO Orange dye were set at 465 and 590 nm, respectively. The temperature was increased with steps of 2°C/min from 25°C to 96°C, and fluorescence readings were taken at each interval in a CFX Opus 96 Real-Time System (Biorad) and analyzed using Maestro Software (Biorad). The melting curves and average melting temperature for each condition were obtained and plotted in temperature vs. concentration graphs in GraphPad Prism 9.0. Plots were fitted using the differential fluorescence scanning (DSF) single binding site equation to obtain the dissociation constants (Kd) in GraphPad Prism 9.0.

[10] = system: T. cruzi Dm28c epimastigotes; assay: Beta-galactosidase assay, epimastigotes; assay type: cell-based, Trypanosoma cruzi; conditions: for SI (E), CC50/IC50 epimastigotes: CC50 Vero cells / IC50; for IC50: Dm28c strain expressing β-galactosidase, read-out: IC50 ± SD Epimastigotes
Experimental: (§2) T. cruzi Dm28c that expresses the E. coli LacZ gene epimastigotes, trypomastigotes, and amastigotes were cultured and obtained as previously described ([Buckner et al., 1996]; [Alonso et al., 2021]). […] The controls included for the amastigotes (intracellular stage) were (a) uninfected cells and (b) infected with 1 μg/mL benznidazole (BZ) (positive control) and 1% DMSO to evaluate the toxicity of the solvent. For epimastigotes and trypomastigotes, the controls used were: 1-μg/ml benznidazole (BZ) (positive control) and 1% DMSO to evaluate solvent toxicity. Results obtained with this assay were verified by manually counting the parasites. The results were expressed as the percentage of inhibition of T. cruzi growth in compound-treated infected cells compared to untreated infected cells for amastigotes. For epimastigotes and trypomastigotes, treated and untreated cultured parasites were compared. Quadruplicates were run in the same microplate and repeated in three experiments. Half-maximal IC50 values were calculated using non-linear regression on GraphPad Prism 9.0, as previously described ([Alonso et al., 2021]).

[11] = system: T. cruzi Dm28c trypomastigotes; assay: Beta-galactosidase assay, trypomastigotes; assay type: cell-based, Trypanosoma cruzi; conditions: for SI (T), CC50/IC50 trypomastigotes: CC50 Vero cells / IC50
Experimental: as §2

[12] = system: T. cruzi Dm28c amastigotes; assay: Beta-galactosidase assay, amastigotes in Vero cells; assay type: cell-based, Trypanosoma cruzi; conditions: for SI (A), CC50/IC50 amastigotes: CC50 Vero cells / IC50; for IC50: Dm28c strain expressing β-galactosidase, 48 h postinfection of Vero cells, read-out: IC50 ± SD Amastigotes
Experimental: as §2

[13] = MTT assay, cell viability; assay type: cell-based; conditions: African green monkey, Vero cells
Experimental: The 3-(4,5-dimethylthiazol-2-yl)-2,5-diphenyltetrazolium bromide (MTT) reduction assay determined cell viability after treatment as previously described ([García et al., 2018]). Optical density (OD) was spectrophotometrically quantified (λ = 540 nm) using a Synergy HT multidetection microplate reader. DMSO was used as blank, and each treatment was performed in triplicates. The 50% cytotoxic concentration (CC50) values were calculated by non-linear regression on GraphPad Prism 9.0, and the selectivity indexes (SI) were determined as the ratio CC50/IC50 in all three life cycle stages.

T1 sequence (Q4DXV1 entry or part of it): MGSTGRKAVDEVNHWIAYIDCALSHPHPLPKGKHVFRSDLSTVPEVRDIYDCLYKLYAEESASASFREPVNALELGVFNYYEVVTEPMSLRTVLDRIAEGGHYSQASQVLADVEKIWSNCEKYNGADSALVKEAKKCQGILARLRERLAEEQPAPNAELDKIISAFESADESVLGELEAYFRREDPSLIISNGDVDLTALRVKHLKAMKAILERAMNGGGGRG

SMILES | IC50 (TcBDF3 [1]) [µM] | Kd (TcBDF3 [9]) [µM] | SI (E), CC50/IC50 epimastigotes [10] | IC50 ([10]; Trypanosoma cruzi) [µM] | SI (T), CC50/IC50 trypomastigotes [11] | SI (A), CC50/IC50 amastigotes [12] | IC50 ([12]; Trypanosoma cruzi, Vero, 48 h) [µM] | CC50 [13] [µM] | also measured
COc1cc(/C=N/NC(=O)c2cccs2)ccc1O [A1B4, (E)-N′-(4-hydroxy-3-methoxybenzylidene)thiophene-2-carbohydrazide] | 2.4 ± 0.3 |  |  |  |  |  |  |  | Binding (fluorescence quenching) [2]: did not bind; Binding (fluorescence quenching) [3]: binds; Binding (fluorescence quenching) [4]: did not bind; Kd (TcBDF3 [5]): 1.7 ± 0.2 µM; IC50 ([6]; Dm28c strain expressing β-galactosidase, read-out: IC50 ± SD Epimastigotes): 23 ± 2.04 µM; SI (E), CC50/IC50 epimastigotes [6]: 11.7; IC50 ([7]; Dm28c strain expressing β-galactosidase, read-out: IC50 ± SD Tripomastigotes): 17.8 ± 2.13 µM; SI (T), CC50/IC50 trypomastigotes [7]: 15; IC50 ([8]; Dm28c strain expressing β-galactosidase, read-out: IC50 ± SD Amastigotes): 13.1 ± 1.43 µM; SI (A), CC50/IC50 amastigotes [8]: 20.5; CC50 (Vero cells): 269 ± 4.28 µM
COc1cc(-c2nnc(-c3cccs3)o2)ccc1O [A1B4c, 2-methoxy-4-(5-(thiophen-2-yl)-1,3,4-oxadiazol-2-yl)phenol] | 8.4 ± 0.5 | 4 ± 0.3 | 11 | < 10 | 54.4 | 13 | < 10 | 90.8 ± 3.54 | IC50 [10]: 8.13 ± 0.87 µM; IC50 [12]: 6.9 ± 0.67 µM; melting point: 224 °C
OCc1ccc(-c2nnc(-c3cccs3)o2)o1 [A5B4c, (5-(5-(thiophene-2-yl)-1,3,4-oxadiazol-2-yl)furan-2-yl)methanol] | 10.5 ± 0.9 | 4.8 ± 0.2 | 21.3 | 14.8 ± 1.38 | 23.5 | 37 | 8.49 ± 1.63 | 316 ± 4.35 | IC50 ([11]; Trypanosoma cruzi, Dm28c strain expressing β-galactosidase, read-out: IC50 ± SD Tripomastigotes): 13.4 ± 1.25 µM
O=C(N/N=C/c1ccc(CO)o1)c1cccs1 [A5B4, (E/Z)-N′-((5-(hydroxymethyl)furan-2-yl)methylene) thiophene-2-carbohydrazide] |  | 136 ± 2.4 |  |  |  |  |  |  | 
